The test system of data set [1] is Capan-1 (pancreatic carcinoma, ATCC HTB-80). Nature of the data set: Cytotoxicity, crystal violet assay, Capan-1. Type of data set: cell-based, human. The procedure: (§1) For the determination of cytotoxicity two different assays were used depending on the characteristics of the treated cells. For adherently growing cells the crystal violet assay^[b] was used. Instead of complete removal of the conditioned culture medium, 100 μl of fresh medium, containing a two-fold higher concentration of the test compounds than the desired final concentration were added 2-3 days after seeding the cells at a density of about 5000 cells/well (100 μl).
(§2) Eight different human cancer cell lines were treated according to the above general procedure for comparative determination of cytotoxicity of bendamustine-HCl and bendamustine mofetil ester.

Data set [2] has as its system LnCap clone FGC (prostate cancer, metastasis of a subclavicular lymph node, ATCC CRL-1740). The data set is described as follows: Cytotoxicity, MTT assay, LnCap clone FGC. Format: cell-based, human. The procedure: (§3) For loosely adherent cells and cells growing in suspension, the MTT-assay^[a] was used. Suspension cells were seeded at a density of 8000 cells/well (100 μl). In case of suspension cells, 100 μl of medium, containing the test compounds bendamustine HCl and bendamustine mofetil ester (or bendamustine methyl ester), were added directly after seeding of the cells. Loosely adherent cells were seeded at a density of 5000 cells/well (100 μl) and treated as described for the crystal violet assay.
(§4) In all cases, one plate was measured at the time, when substances were added (t0-plate). The MTT-(2.5 mg/ml) solution (PBS) was freshly prepared for each measurement. 20 μl of this solution were added per well (100 μl) of each plate at subsequent days. Incubation period with MTT was 3 hours at 37° C. After incubation, the plates were centrifuged, and the medium was removed to a residual volume of 50 μl per well. Then, 100 μl of DMSO were added, and the plates were shaken for 1 hour. Absorbance was measured at a wavelength of 580 nm.
as §2

Data set [3] concerns MG-63 (osteosarcoma, ATCC CRL-1427). The data set is described as follows: Cytotoxicity, crystal violet assay, MG-63. Type of data set: cell-based, human. The procedure: as §1, §2
For data set [4], the system named is HEL92.1.7 (erythroleukemia, ATCC TIB-180). The data set is described as follows: Cytotoxicity, MTT assay, HEL92.1.7. Type of data set: cell-based, human. The procedure:
as §3, §4, §2

The test system of data set [5] is Jurkat (acute T-cell leukemia, ATCC TIB-152). The data set is described as follows: Cytotoxicity, MTT assay, Jurkat. Type of data set: cell-based, human. The procedure:
as §3, §4, §2

Data set [6] relates to U-937 (histocytic lymphoma, ATCC CRL-1593.2). The data set is described as follows: Cytotoxicity, MTT assay, U-937. Type of data set: cell-based, human. How it is done: as §3, §4, §2
The subject of data set [7] is SK-ES1 (Ewing sarcoma, ATCC HTB-86). Nature of the data set: Cytotoxicity, MTT assay, SK-ES1. Type of data set: cell-based, human. How it is done: as §3, §4, §2
Data set [8] deals with NCl-H460 (large cell bronchial carcinoma, ATCC HTB-177). Nature of the data set: Cytotoxicity, crystal violet assay, NCl-H460. Type of data set: cell-based, human. How it is done: as §1, §2
Data set [9] relates to human malignant tumour cell lines. The data set is described as follows: Comparative cytotoxicity, all cell lines investigated. Format: cell-based. The settings on record: against all human malignant tumour cell lines investigated (Table 1). How it is done: as §1, §3
In all cases, one plate was measured at the time, when substances were added (t0-plate). The MTT-(2.5 mg/ml) solution (PBS) was freshly prepared for each measurement. 20 μl of this solution were added per well (100 μl) of each plate at subsequent days. Incubation period with MTT was 3 hours at 37° C. […] Absorbance was measured at a wavelength of 580 nm. […]

Where [10] appears, read: Homo sapiens, long-term exposure (96 h), MTT assay, errors as 95% confidence intervals.

Consider `Cn1c(CCCC(=O)OCCN2CCOCC2)nc2cc(N(CCCl)CCCl)ccc21` [bendamustine mofetil ester, 2-morpholinoethyl 4-(5-(bis(2-chloroethyl)amino)-1-methyl-1H-benzo[d]imidazol-2-yl)butanoate], for which the “ratio (IC50 bendamustine-HCl / IC50 bendamustine mofetil ester)” value was 19.4 in data set [1] (Capan-1, 96 h); 34.1 in data set [2] (96 h); 16.2 in [3] (MG-63, 96 h); 24.7 in data set [4] (HEL92.1.7, 96 h); 10.1 in data set [5] (96 h); 21.9 in data set [6] (U-937, 96 h). The “ratio (IC50 bendamustine-HCl / IC50 bendamustine mofetil ester)” value amounted to 12.2 in data set [7] (SK-ES1, 96 h) and 10.4 in data set [8] (NCl-H460, 96 h). Also, the IC50 in [1] (Homo sapiens, Capan-1, long-term exposure (96 h), crystal violet assay, errors as 95% confidence intervals) was determined as 1.3 ± 0.3 µM; in [2] (setting [10]), 2.1 ± 0.6 µM; in data set [3] (Homo sapiens, MG-63, long-term exposure (96 h), crystal violet assay, errors as 95% confidence intervals) it was 3.4 ± 0.7 µM; in [4] (Homo sapiens, HEL 92.1.7, HEL92.1.7, long-term exposure (96 h), MTT assay, errors as 95% confidence intervals), 3.4 ± 0.4 µM; in [5] (setting [10]) it was 4.2 ± 0.3 µM; in data set [6] (Homo sapiens, U-937, long-term exposure (96 h), MTT assay, errors as 95% confidence intervals) it was 4.2 ± 0.9 µM. The IC50 in [7] (Homo sapiens, SK-ES1, long-term exposure (96 h), MTT assay, errors as 95% confidence intervals) is 0.9 ± 0.2 µM; in data set [8] (Homo sapiens, NCl-H460, long-term exposure (96 h), crystal violet assay, errors as 95% confidence intervals), 8.6 ± 0.6 µM. For the same molecule, the “cytotoxicity compared to bendamustine-HCl” value in [9] was “remarkably enhanced cytotoxicity”.
